# Test results taken from ChEMBL document CHEMBL1201862, “PubChem BioAssay data set” (2004).
# The source made the active and inactive calls.
# Tests used:
# P388/ADR = assay: cells; type: functional; conditions: Mus musculus
# SN12K1 = assay: cells; type: functional; conditions: Homo sapiens
# P388 = assay: cells; type: functional; conditions: Mus musculus
# HEK293 [1] = assay: NOD2 signaling inhibitors in MDP-stimulated cells, cell-based, uHTS, luminescence (AID 2001); type: functional; conditions: Homo sapiens
# HEK293 [2] = assay: cells; type: functional, cell-based; conditions: Homo sapiens
# HEK293 [3] = assay: inhibition of NOD1-driven NF-kB reporter – cell-based, luminescence, uHTS, primary screen (AID 1578); type: functional; conditions: Homo sapiens
# [4] = target: Nucleotide-binding oligomerization domain-containing protein 2 (Homo sapiens, UniProt Q9HC29); assay: inhibition of NOD2-driven NF-kB reporter – cell-based, luminescence, uHTS, HEK293 (AID 1566); type: functional
# Sequence of Nucleotide-binding oligomerization domain-containing protein 2 (Q9HC29 whole entry, the tested form may be a part): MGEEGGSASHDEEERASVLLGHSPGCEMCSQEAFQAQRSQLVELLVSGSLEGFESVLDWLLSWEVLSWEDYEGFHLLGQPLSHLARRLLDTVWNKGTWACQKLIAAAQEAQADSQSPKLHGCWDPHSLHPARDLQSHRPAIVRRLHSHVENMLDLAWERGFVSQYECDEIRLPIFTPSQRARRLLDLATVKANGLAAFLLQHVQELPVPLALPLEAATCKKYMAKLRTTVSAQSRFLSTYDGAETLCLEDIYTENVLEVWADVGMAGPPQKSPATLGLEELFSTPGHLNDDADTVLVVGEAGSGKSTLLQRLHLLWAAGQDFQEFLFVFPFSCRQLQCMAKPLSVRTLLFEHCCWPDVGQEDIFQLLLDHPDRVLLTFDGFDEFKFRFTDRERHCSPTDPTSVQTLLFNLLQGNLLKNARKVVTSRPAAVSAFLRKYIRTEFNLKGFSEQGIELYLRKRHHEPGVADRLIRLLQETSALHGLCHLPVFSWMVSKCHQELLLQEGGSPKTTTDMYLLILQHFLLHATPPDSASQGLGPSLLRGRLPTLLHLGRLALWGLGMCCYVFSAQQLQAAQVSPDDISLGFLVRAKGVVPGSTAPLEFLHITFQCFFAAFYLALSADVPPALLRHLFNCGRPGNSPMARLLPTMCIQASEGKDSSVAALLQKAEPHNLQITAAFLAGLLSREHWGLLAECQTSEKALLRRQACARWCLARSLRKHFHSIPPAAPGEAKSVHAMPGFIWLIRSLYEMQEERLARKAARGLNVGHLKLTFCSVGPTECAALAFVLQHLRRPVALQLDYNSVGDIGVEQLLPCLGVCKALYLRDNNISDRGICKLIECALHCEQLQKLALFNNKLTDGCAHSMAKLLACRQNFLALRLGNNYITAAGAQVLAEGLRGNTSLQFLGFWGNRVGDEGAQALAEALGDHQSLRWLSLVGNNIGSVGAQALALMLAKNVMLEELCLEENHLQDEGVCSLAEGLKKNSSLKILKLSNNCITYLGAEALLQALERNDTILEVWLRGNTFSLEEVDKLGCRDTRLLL
# HEK293 [5] = assay: cells; type: functional, cell-based; conditions: Homo sapiens; remark: listed apart in the source
# [6] = target: T1, Short transient receptor potential channel 4 (Mus musculus, UniProt Q9QUQ5); assay: block of DAMGO-driven TRPC4 calcium entry – cell-based, HEK293 TRPC4/mu-opioid, Fluo-4 calcium, dose response (AID 434942); type: functional;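 further: potency of inhibitors blocking the TRPC4 calcium response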
# T1 sequence (Q9QUQ5 whole entry): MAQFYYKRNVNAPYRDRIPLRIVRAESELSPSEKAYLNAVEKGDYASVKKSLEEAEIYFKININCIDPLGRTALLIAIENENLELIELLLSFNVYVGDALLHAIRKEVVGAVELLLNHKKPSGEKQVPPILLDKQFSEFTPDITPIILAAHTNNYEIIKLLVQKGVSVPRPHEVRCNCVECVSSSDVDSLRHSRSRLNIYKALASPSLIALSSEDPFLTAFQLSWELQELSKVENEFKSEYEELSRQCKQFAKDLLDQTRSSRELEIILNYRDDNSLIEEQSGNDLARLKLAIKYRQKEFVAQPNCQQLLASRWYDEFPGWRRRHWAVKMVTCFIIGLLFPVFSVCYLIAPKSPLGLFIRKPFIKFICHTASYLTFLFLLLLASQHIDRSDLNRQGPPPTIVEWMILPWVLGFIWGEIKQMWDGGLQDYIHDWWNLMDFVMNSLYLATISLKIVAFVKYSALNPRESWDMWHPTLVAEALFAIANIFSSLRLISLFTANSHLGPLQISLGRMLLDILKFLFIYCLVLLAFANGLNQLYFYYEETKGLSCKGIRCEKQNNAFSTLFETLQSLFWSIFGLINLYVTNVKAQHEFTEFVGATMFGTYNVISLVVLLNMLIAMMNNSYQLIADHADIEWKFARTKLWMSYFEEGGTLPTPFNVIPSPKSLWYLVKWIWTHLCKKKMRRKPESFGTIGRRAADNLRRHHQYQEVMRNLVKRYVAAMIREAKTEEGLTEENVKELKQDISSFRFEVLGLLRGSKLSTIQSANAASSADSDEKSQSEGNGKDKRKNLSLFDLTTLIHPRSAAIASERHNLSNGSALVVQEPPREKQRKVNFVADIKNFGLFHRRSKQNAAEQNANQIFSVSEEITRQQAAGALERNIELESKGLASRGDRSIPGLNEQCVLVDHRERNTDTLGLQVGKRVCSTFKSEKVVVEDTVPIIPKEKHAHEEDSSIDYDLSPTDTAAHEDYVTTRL
# Cytochrome P450 1A2 = target: T2, Cytochrome P450 1A2 (Homo sapiens, UniProt P05177);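 further: PubChem cytochrome P450 panel assay, CYP1A2 panel member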
# T2 sequence (P05177 whole entry): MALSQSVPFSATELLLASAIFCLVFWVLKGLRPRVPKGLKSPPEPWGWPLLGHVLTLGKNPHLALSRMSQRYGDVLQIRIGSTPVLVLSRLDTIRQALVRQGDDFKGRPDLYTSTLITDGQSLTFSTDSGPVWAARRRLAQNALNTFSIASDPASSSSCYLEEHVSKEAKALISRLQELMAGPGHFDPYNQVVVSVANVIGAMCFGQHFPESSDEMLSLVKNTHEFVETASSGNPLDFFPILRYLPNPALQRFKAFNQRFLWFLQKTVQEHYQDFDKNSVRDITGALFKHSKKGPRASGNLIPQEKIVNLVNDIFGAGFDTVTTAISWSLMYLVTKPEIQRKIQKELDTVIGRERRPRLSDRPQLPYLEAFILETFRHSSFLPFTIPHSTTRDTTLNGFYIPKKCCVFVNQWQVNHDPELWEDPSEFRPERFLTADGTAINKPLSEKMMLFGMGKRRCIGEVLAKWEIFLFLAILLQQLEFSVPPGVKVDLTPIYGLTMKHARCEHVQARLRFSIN
# Cytochrome P450 2C19 = Cytochrome P450 2C19 (Homo sapiens, UniProt P33261); assay: Cytochrome panel assay with activity outcomes. Panel member name: p450-cyp2c19 Compounds with AC50 equal or less than 10 uM are considered active; type: functional; conditions: read-out: AC50
# Sequence of Cytochrome P450 2C19 (P33261 whole entry): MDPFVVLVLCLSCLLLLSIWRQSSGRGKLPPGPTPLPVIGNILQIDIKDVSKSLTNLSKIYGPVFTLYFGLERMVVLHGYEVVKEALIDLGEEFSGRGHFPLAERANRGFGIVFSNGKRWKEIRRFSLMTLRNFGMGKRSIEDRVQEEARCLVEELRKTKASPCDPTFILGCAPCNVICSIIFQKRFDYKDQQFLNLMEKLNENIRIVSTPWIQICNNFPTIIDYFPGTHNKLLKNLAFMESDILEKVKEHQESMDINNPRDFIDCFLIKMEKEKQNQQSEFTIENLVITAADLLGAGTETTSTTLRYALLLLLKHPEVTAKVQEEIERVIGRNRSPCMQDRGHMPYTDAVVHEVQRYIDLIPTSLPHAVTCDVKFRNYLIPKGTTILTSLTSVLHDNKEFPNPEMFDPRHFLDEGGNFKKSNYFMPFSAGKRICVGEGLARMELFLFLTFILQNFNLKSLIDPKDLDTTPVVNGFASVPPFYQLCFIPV
# Cytochrome P450 3A4 = Cytochrome P450 3A4 (Homo sapiens, UniProt P08684);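 further: CYP3A4 tested as one member of a cytochrome P450 panel screen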
# Sequence of Cytochrome P450 3A4 (P08684 whole entry): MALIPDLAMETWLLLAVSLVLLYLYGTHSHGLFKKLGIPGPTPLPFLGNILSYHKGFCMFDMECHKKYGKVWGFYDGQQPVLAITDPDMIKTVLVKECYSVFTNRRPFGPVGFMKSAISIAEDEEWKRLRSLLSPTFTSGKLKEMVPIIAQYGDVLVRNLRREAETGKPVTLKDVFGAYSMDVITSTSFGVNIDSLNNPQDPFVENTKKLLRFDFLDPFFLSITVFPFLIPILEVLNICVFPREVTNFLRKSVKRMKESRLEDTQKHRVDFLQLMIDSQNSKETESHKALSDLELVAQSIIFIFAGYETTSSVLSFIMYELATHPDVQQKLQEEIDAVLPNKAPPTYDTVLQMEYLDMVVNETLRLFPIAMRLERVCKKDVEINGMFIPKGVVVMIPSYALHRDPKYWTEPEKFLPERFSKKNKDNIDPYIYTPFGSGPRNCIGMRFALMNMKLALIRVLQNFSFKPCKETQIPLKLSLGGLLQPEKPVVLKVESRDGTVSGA
# [7] = target: DNA dC->dU-editing enzyme APOBEC-3G (Homo sapiens, UniProt Q9HC16); assay: Dose Response confirmation of small molecule APOBEC3G DNA Deaminase Inhibitors via a fluorescence-based single-stranded DNA deaminase assay. [Related pubchem assays (depositor defined):AID493012, AID493028]; type: functional
# Sequence of DNA dC->dU-editing enzyme APOBEC-3G (Q9HC16 whole entry): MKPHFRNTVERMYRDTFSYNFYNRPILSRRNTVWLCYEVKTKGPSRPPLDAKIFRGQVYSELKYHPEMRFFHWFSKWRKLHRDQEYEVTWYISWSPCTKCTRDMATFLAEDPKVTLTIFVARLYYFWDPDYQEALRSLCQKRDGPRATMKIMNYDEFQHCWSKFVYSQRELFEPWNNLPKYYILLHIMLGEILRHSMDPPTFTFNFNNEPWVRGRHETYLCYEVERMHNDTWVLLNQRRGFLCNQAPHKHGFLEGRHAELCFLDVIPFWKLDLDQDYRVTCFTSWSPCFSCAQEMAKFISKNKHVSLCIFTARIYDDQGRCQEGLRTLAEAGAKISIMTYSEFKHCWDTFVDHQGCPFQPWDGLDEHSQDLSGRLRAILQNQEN
# [8] = target: DNA dC->dU-editing enzyme APOBEC-3A (Homo sapiens, UniProt P31941); assay: A3A deaminase inhibition for selectivity – biochemical, dose response (AID 504722); type: functional
# Sequence of DNA dC->dU-editing enzyme APOBEC-3A (P31941 whole entry): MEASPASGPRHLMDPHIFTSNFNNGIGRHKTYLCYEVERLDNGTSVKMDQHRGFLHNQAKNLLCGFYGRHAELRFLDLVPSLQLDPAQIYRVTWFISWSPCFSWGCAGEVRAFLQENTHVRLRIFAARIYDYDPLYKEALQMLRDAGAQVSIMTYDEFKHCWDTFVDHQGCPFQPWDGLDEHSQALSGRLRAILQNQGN
# [9] = THP-1 cell cytotoxicity, dose response, cytotoxicity control for non-replicating M. tuberculosis project (AID 489025); type: functional
# INS1 = assay: INS-1E survival protection against cytokine death – cell-based, luminescence, retest, dose response (AID 449756); type: functional; conditions: Rattus norvegicus;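 further: cell death triggered by IL-1 beta plus TNF-alpha plus IFN-gamma mixture; protective hits raise ATP signal compared with cytokine alone wells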
# Large T antigen = Large T antigen (Simian virus 40, UniProt P03070); type: functional, Betapolyomavirus macacae;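 further: Confirmatory-stage PubChem screen for compounds that inhibit SV40 T antigen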
# Sequence of Large T antigen (P03070 whole entry): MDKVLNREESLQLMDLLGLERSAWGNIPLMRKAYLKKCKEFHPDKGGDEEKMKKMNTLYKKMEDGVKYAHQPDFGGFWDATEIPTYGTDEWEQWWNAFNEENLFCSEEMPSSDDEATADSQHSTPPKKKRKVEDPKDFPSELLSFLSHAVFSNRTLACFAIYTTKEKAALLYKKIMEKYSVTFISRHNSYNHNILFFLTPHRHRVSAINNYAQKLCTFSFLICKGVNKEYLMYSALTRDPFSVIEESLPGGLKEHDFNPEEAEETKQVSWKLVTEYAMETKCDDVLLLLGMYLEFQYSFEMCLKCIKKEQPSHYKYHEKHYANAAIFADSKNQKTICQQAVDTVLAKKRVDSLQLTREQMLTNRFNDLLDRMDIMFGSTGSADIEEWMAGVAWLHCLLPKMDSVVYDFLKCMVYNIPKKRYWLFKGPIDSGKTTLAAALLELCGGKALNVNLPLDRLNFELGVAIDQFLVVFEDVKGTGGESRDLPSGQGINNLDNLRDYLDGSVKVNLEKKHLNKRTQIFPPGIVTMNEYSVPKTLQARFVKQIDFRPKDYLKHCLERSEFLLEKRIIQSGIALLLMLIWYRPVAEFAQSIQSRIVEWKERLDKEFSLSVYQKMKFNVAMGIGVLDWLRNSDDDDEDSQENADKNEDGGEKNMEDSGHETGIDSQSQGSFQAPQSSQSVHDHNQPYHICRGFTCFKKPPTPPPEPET
# [10] = NIH3T3 cell viability loss – ATP luminescence, mouse fibroblasts, counter-screen, dose response (AID 2010); type: functional, cell-based;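 further: cells exposed to compound for about 90 hours before reading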
# [11] = Vero E6 cell cytotoxicity, dose response, cytotoxicity control for non-replicating M. tuberculosis project, secondary assay (AID 492998); type: functional, VeroE6; conditions: Vero C1008
# [12] = Trypanosoma cruzi growth suppression in host cells – NIH3T3 host cells, beta-gal luminescence, confirmation (AID 2044); type: functional, cell-based;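 further: intracellular parasites grown in NIH/3T3 mouse fibroblasts as host cells; luminescent beta-galactosidase reporter signal from transgenic T. cruzi replicating inside host cells; inhibitors lower the luminescence signal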
# cells = type: functional
# [13] = HepG2 cell cytotoxicity, dose response, cytotoxicity control for non-replicating M. tuberculosis project (AID 489018); type: functional; conditions: Mycobacterium tuberculosis
# [14] = target: FAD-linked sulfhydryl oxidase ALR (Homo sapiens, UniProt P55789); assay: ALR-catalysed DTT oxidation blockers – biochemical, H2O2 detection, luminescence, cherry-pick, dose response (AID 493248)
# Sequence of FAD-linked sulfhydryl oxidase ALR (P55789 whole entry): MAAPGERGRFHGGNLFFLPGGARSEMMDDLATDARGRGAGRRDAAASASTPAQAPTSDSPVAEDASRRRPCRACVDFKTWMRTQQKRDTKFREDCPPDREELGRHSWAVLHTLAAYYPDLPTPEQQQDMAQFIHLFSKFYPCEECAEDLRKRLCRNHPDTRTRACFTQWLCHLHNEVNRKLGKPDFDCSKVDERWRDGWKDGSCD
# Vero [15] = assay: cells; type: functional; conditions: Chlorocebus sabaeus
# Vero [16] = assay: cells; type: functional, cell-based; conditions: Chlorocebus sabaeus
# [17] = target: T3, Replicative DNA helicase DnaB (Mycobacterium tuberculosis, UniProt P9WMR3); assay: DnaB intein splicing inhibitors, dose response, biochemical, cell-free fluorescence (AID 449749); type: functional
# T3 sequence (P9WMR3 whole entry): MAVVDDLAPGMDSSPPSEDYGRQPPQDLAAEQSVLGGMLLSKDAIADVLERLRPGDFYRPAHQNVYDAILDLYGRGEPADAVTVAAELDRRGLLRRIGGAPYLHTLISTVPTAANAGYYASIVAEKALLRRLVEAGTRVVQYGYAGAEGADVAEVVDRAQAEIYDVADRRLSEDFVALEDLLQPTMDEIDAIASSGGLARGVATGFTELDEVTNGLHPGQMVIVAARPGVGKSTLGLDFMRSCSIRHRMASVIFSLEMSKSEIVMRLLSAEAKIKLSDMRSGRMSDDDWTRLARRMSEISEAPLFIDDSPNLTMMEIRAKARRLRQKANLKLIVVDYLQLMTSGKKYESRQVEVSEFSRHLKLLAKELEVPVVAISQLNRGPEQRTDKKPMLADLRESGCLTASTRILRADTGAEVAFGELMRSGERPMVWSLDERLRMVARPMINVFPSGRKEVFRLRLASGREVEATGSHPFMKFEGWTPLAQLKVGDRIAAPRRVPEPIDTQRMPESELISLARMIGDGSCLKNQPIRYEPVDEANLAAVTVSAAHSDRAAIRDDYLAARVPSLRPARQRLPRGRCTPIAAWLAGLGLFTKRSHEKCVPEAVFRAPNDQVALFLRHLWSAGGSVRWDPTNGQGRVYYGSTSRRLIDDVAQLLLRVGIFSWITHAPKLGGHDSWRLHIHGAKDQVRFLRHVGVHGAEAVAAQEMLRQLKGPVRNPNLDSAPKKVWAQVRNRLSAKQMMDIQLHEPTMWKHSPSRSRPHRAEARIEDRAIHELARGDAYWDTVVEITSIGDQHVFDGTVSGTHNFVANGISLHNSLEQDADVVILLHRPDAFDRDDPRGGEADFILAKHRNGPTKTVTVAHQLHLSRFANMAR
# Protein RecA = target: T4, Protein RecA (Mycobacterium tuberculosis, UniProt P9WHJ3); assay: Fluorescence Cell-Free Homogeneous Dose Retest to Identify Inhibitors of RecA-Intein Splicing Activity. [Related pubchem assays (depositor defined):AID2097, AID2223, AID489010, AID492950]; type: functional
# T4 sequence (P9WHJ3 whole entry): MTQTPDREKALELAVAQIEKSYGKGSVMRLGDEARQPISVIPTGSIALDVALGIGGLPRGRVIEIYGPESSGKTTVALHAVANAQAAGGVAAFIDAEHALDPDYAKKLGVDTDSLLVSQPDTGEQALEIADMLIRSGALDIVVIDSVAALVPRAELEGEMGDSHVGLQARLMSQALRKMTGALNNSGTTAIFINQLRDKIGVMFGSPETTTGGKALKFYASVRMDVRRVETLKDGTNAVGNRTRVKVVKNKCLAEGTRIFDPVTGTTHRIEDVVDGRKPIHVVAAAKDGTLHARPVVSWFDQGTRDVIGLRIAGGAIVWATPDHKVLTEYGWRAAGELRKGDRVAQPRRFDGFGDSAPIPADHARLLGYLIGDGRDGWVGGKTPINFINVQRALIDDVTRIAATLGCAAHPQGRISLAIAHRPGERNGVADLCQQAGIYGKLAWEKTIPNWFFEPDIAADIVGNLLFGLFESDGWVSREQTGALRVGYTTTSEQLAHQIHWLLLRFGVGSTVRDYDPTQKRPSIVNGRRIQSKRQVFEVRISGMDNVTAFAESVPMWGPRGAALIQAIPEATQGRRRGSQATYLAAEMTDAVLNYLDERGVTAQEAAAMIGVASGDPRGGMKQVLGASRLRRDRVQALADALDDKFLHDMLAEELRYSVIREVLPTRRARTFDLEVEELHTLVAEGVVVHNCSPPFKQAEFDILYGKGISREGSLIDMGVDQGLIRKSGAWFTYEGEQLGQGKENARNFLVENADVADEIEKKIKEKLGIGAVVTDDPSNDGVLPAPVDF
# Nonstructural protein 1 = Nonstructural protein 1 (Influenza A virus, UniProt Q194T2); type: functional, Influenza A virus (A/California/07/2009(H1N1))
# Sequence of Nonstructural protein 1 (Q194T2 whole entry): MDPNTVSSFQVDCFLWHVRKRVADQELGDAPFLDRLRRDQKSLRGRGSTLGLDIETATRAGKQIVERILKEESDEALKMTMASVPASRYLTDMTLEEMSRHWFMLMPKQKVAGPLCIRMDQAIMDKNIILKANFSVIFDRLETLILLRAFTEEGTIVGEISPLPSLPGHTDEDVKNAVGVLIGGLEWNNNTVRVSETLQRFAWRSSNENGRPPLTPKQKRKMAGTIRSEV
smiles,measurement,setting,value
COC(=O)C(C/C=C(\C)c1ccc(Cl)cc1)C(C)=O (stereo not drawn),GI50,P388/ADR,23.6 µM (inactive)
same,GI50,SN12K1,21.8 µM (inactive)
same,GI50,P388,20 µM (inactive)
C/C=C/C1=CC(=O)C(O)C1O (stereo not drawn),GI50,P388/ADR,17.9 µM (inactive)
same,GI50,SN12K1,28.1 µM (inactive)
same,GI50,P388,15 µM (inactive)
CC(=O)c1ccc(-n2c(C)c(C(C)=O)c3cc(O)ccc32)cc1,IC50,HEK293 [1],2.7 µM (active)
same,IC50,HEK293 [2],> 20 µM (inactive)
same,EC50,HEK293 [3],> 20 µM (inactive)
same,EC50,[4],> 20 µM (inactive)
same,IC50,HEK293 [5],1.94 µM (active)
O=C(Nc1cccc(Cl)c1)N1CCN2C(=O)c3ccccc3C12c1ccccc1 (stereo not drawn),EC50,[6],3.76 µM (active)
same,AC50,Cytochrome P450 1A2,3.16 µM (inconclusive)
CCC(C)NC(=O)c1cnn2c(C)c3c(nc12)CCCC3 (stereo not drawn),AC50,Cytochrome P450 2C19,31.6 µM (inconclusive)
same,AC50,Cytochrome P450 3A4,inconclusive
c1ccc(CCCCN2CCC(c3ccccc3)CC2)cc1,AC50,Cytochrome P450 3A4,inconclusive
CN1CCN(c2ncc3nc(-c4ccc(Cl)cc4)c(=O)n(Cc4cccs4)c3n2)CC1,AC50,Cytochrome P450 3A4,inconclusive
Cc1csc(/N=C(/NCCN2CCOCC2)Nc2nc(C)cs2)n1,GI50,P388/ADR,> 80.4 µM (inactive)
same,GI50,SN12K1,> 100 µM (inactive)
same,GI50,P388,> 31.6 µM (inactive)
C=C(C)Cn1c(-c2cccc([N+](=O)[O-])c2)n[nH]c1=S,IC50,[7],5.5 µM (active)
same,IC50,[8],> 100 µM (inactive)
Cc1ccc2nc(-c3ccccn3)c(NC3CCCC3)n2c1,CC50,[9],14.3 µM (active)
same,AC50,INS1,8.58 µM (active)
same,IC50,Large T antigen,11.6 µM (active)
same,EC50,[10],> 60 µM (not active)
same,CC50,[11],16.5 µM (active)
same,EC50,[12],1.74 µM (active)
same,IC50,cells,4.95 µM (active)
same,CC50,[13],> 20 µM (active)
same,AC50,[14],7.26 µM (active)
Cc1ccc(OCCCCCCN2CCNCC2)c(Br)c1,CC50,Vero [15],21.8 µM (active)
same,IC50,Vero [16],19.7 µM (active)
c1ccn2cc(C34CC5CC(CC(C5)C3)C4)nc2c1,EC50,[6],6.68 µM (active)
Cc1nn(C)c(C)c1Sc1ccc(Br)cc1,EC50,[6],4.73 µM (active)
O=C1c2ccccc2-n2c1nc1ccccc1c2=O [TRYPTANTHRIN],CC50,[9],17.5 µM (active)
same,AC50,[17],1.08 µM (active)
same,CC50,[11],> 20 µM (active)
same,EC50,Protein RecA,0.643 µM (active)
same,IC50,cells,0.33 µM (active)
same,CC50,[13],> 20 µM (active)
C/C(=N\Nc1nc2ccccc2[nH]1)c1ccc(N2CCOCC2)cc1,IC50,cells,20.3 µM (active)
same,CC50,[13],> 20 µM (active)
COc1ccc([N+](=O)[O-])cc1NCc1ccco1,EC50,[6],2.99 µM (active)
Cc1ccc(C(C[N+](=O)[O-])c2c(-c3ccccc3O)n[nH]c2O)cc1 (stereo not drawn),CC50,Vero [15],9.3 µM (active)
same,IC50,Vero [16],> 25 µM (active)
C/C(=N\NC(=O)c1c[nH]c2ccccc12)c1ccccn1,CC50,[9],6.55 µM (active)
same,IC50,Nonstructural protein 1,3.17 µM (active)
same,EC50,[10],3.97 µM (active)
same,CC50,[11],2.01 µM (active)
same,EC50,[12],1.73 µM (active)
same,IC50,cells,4.29 µM (active)
same,CC50,[13],12.1 µM (active)
